# From patent US20230277483A1, “COMPOSITIONS AND METHODS TO TREAT INFLAMMATION” (University of Iowa Research Foundation, priority 2022, published 2023)
# What was measured:
# [1] = test system: 3T3-L1; assay: TNF-induced inflammation in differentiated white adipocytes; assay type: cell-based, mouse; settings: 10 ng/ml TNF with 0.1 uM HCA, 24 hr
# Description: 3T3-L1 (CL-173-ATCC, PMID. 26451286) were grown in DMEM containing 10% fetal bovine serum (FBS) and 1% pen/strep. Cells were induced to differentiate 2 d after reaching confluence by supplementing growth media with 3 nM insulin (Humulin R, Lily, Humulin R U-500, 0002-8501-01), 0.25 nM dexamethasone (Sigma, D4902), 2 uM rosiglitazone (Sigma, R2408) and 0.5 mM 1-methyl-3-isobutyl-xanthine (Sigma, I5879). From day 3 until day 7, cells were maintained in growth media supplemented with 3 nM insulin after which the mature adipocytes were maintained in growth media. Cells were then incubated for 24 hr in the presence or absence of 10 ng/ml TNF (PeproTech, 315-01A) with or without 0.1 uM 6-Hydroxycaproic acid (HCA, Sigma, 515302).
# To determine the effects of HCA on adipose-mediated inflammation, 3T3-L1 cells were differentiated into white adipocytes and then exposed to the pro-inflammatory cytokine tumor necrosis factor alpha (TNFa).
# [2] = test system: Human MDM; assay: Anti-inflammatory miR expression after Pg-LPS challenge; assay type: cell-based
# Description: FIGS. 11A-11B. Sg metabolites upregulate anti-inflammatory miRs in human macrophages and HGF. A-B: Relative transcript changes of miR-200c, 146a, and 21 in HGF (A) and human MDM (B) treated with AICAR, MA, HCA, and HPLA 24 hours after Pg-LPS challenge; performed in duplicate.
# Human MDM was cultured in a 24-well plate and treated with HCA at different concentrations and Pg-LPS at 100 ng/mi for 24 hrs. […] (All data are presented as means±SEM. *: p<0.05 vs untreated, ANOVA).
# [3] = test system: S. oralis (So, ATCC 35037); assay: Bacterial proliferation measured by OD600; assay type: cell-based, Streptococcus oralis; settings: HCA at 0.1 μM; aerobic culture
# Description: Sg metabolites promote commensal bacterial proliferation and inhibit periodontopathogenic bacterial proliferation and colonization. Commensal bacteria, Sg, S. sanguinis (Ss, ATCC10556), S. mitis (Sm, ATCC49456) and S. oralis (So, ATCC 35037) were cultured in BHI medium. In addition, pathogenic bacteria, Pg was cultured using BHI and Tf (ATCC43037), and Td (ATCC 35405) were grown in Thioglycollate medium with vitamin K and Hemin in 90% N2, 5% H2, 5% CO2. The Sg metabolites were diluted using DMEM and added to the bacteria with the similar OD600 value. The same amount of DMEM was used as a control. During the exponential growth of bacteria, the OD600 value was measured to determine the proliferation. […] In addition, to determine the function of Sg metabolites on Pg colonization, Pg were inoculated in 24-well plates containing BHI or BHI supplemented with DMEM or Sg metabolites. […]
# HCA promotes proliferation of health related bacteria and inhibits proliferation and attachment of periodontopathogenic bacteria. […] The composition of the microbiomes was determined by amplifying the V3 and V4 regions of the 16S rRNA genes. Raw data in FASTQ format were filtered and denoised using DADA2 (Divisive Amplicon Denoising Algorithm) to generate amplicon sequence variants (ASV) or operational taxonomical units (OTUs) that were then analyzed by QIIME2.
# [4] = test system: Pg (ATCC 49417); assay: Pg proliferation measured by OD600 under HCA; assay type: cell-based, Porphyromonas gingivalis; settings: HCA at 0.1 and 10 μM; after 48 and 72 hrs vs untreated controls
# Description: Pg (ATCC 49417), a key pathogen of periodontitis, was cultured at 24 well-plates with BHI medium at 90% N2, 5% H2, 5% CO2. HCA at 0.1 and 10 μM was applied.
smiles,measurement,setting,value
"O=C(O)CCCCCO [HCA, 6-hydroxycaproic acid]",TNF-induced IL-6 secretion,[1],significantly reduced
same,"anti-inflammatory miRs (miR-200c, 146a, and 21)",[2]; 24 hours after Pg-LPS challenge,upregulate
same,miR-200c expression,"[2]; HCA at 10 μM, Pg-LPS at 100 ng/ml for 24 hrs",significantly upregulated
same,proliferation of S. oralis,[3],improve proliferation
same,OD600 value of Pg,[4],significantly reduced
